The values that follow come from US20180244699A1, “1-HYDROXY-3H-2,1-BENZOXABOROLE DERIVATIVES AND THEIR USE AS MICROBIOCIDES” (Syngenta Participations AG, priority 2015, published 2018).

This experiment deals with Pythium ultimum. The experiment can be described thus: Pythium ultimum / liquid culture (seedling damping off). The experiment is classed as cell-based. The settings on record: Globisporangium ultimum, growth inhibition photometrically 2-3 days after application, compared to untreated control. How it is done:
15. Pythium ultimum/Liquid Culture (Seedling Damping Off) Mycelia fragments and oospores of a newly grown liquid culture of the fungus are directly mixed into nutrient broth (PDB potato dextrose broth). After placing a (DMSO) solution of test compound into a microtiter plate (96-well format), the nutrient broth containing the fungal mycelia/spore mixture is added. The test plates are incubated at 24° C. and the inhibition of growth is determined photometrically 2-3 days after application.

For orientation: inhibition of growth means how much of the control response was suppressed. Higher therefore signals a strong effect. Molecule `COc1c(C(=O)NCc2ccccn2)ccc2c1B(O)OC2` [Compound 7, 1-hydroxy-7-methoxy-N-(2-pyridylmethyl)-3H-2,1-benzoxaborole-6-carboxamide] displayed an inhibition of growth at 20 ppm not below 80%.

The molecule `COc1c(C(=O)N(C)C)ccc2c1B(O)OC2` [Compound 11, 1-hydroxy-7-methoxy-N,N-dimethyl-3H-2,1-benzoxaborole-6-carboxamide] returned an inhibition of growth at 20 ppm not below 80%.

Regarding `CN(C)C(=O)c1ccc2c(c1Cl)B(O)OC2` [Compound 13, 7-chloro-1-hydroxy-N,N-dimethyl-3H-2,1-benzoxaborole-6-carboxamide], the inhibition of growth at 20 ppm was not below 80%.

`CCOC(=O)N1CCC(NC(=O)c2ccc3c(c2OC)B(O)OC3)CC1` [Compound 18, ethyl 4-[(1-hydroxy-7-methoxy-3H-2,1-benzoxaborole-6-carbonyl)amino]piperidine-1-carboxylate] registered an inhibition of growth at 20 ppm not below 80%.

Molecule `COc1c(C(=O)NC(=O)N(C)C)ccc2c1B(O)OC2` [Compound 21, N-(dimethylcarbamoyl)-1-hydroxy-7-methoxy-3H-2,1-benzoxaborole-6-carboxamide] registered an inhibition of growth at 20 ppm not below 80%.

`COc1c(C(=O)Nc2cc(C)cc(C)n2)ccc2c1B(O)OC2` [Compound 22, N-(4,6-dimethyl-2-pyridyl)-1-hydroxy-7-methoxy-3H-2,1-benzoxaborole-6-carboxamide] showed an inhibition of growth at 20 ppm not below 80%.

Molecule `COC(=O)C1CCN(C(=O)c2ccc3c(c2OC)B(O)OC3)CC1` [Compound 24, methyl 1-(1-hydroxy-7-methoxy-3H-2,1-benzoxaborole-6-carbonyl)piperidine-4-carboxylate] registered an inhibition of growth at 20 ppm not below 80%.

`COCCN(C)C(=O)c1ccc2c(c1OC)B(O)OC2` [Compound 27, 1-hydroxy-7-methoxy-N-(2-methoxyethyl)-N-methyl-3H-2,1-benzoxaborole-6-carboxamide] had an inhibition of growth at 20 ppm not below 80%.

The molecule `COc1c(C(=O)N(C)c2nc(C)c(S(N)(=O)=O)s2)ccc2c1B(O)OC2` [Compound 28, 1-hydroxy-7-methoxy-N-methyl-N-(4-methyl-5-sulfamoyl-thiazol-2-yl)-3H-2,1-benzoxaborole-6-carboxamide] came in with an inhibition of growth at 20 ppm not below 80%.

The molecule `COc1c(C(=O)N(C)c2ccccn2)ccc2c1B(O)OC2` [Compound 30, 1-hydroxy-7-methoxy-N-methyl-N-(2-pyridyl)-3H-2,1-benzoxaborole-6-carboxamide] came in with an inhibition of growth at 20 ppm not below 80%.

In the case of `COc1c(C(=O)NCC(C)C)ccc2c1B(O)OC2` [Compound 36, 1-hydroxy-N-isobutyl-7-methoxy-3H-2,1-benzoxaborole-6-carboxamide], the inhibition of growth at 20 ppm was not below 80%.

As for `CCOC(=O)C1(NC(=O)c2ccc3c(c2OC)B(O)OC3)CC1` [Compound 37, ethyl 1-[(1-hydroxy-7-methoxy-3H-2,1-benzoxaborole-6-carbonyl)amino]cyclopropanecarboxylate], the inhibition of growth at 20 ppm was not below 80%.

In turn, `COc1c(C(=O)Nc2c(C(C)C)ccnc2C(C)C)ccc2c1B(O)OC2` [Compound 38, N-(2,4-diisopropyl-3-pyridyl)-1-hydroxy-7-methoxy-3H-2,1-benzoxaborole-6-carboxamide] showed an inhibition of growth at 20 ppm not below 80%.

Molecule `COc1c(C(=O)N(C)c2cc(Cl)cnc2Cl)ccc2c1B(O)OC2` [Compound 39, N-(2,5-dichloro-3-pyridyl)-1-hydroxy-7-methoxy-N-methyl-3H-2,1-benzoxaborole-6-carboxamide] displayed an inhibition of growth at 20 ppm not below 80%.

As to `CCSc1nc(NC(=O)c2ccc3c(c2OC)B(O)OC3)nn1C` [Compound 40, N-(5-ethylsulfanyl-1-methyl-1,2,4-triazol-3-yl)-1-hydroxy-7-methoxy-3H-2,1-benzoxaborole-6-carboxamide], the inhibition of growth at 20 ppm was not below 80%.

`COc1c(C(=O)Nc2ccnc(C)c2)ccc2c1B(O)OC2` [Compound 42, 1-hydroxy-7-methoxy-N-(2-methyl-4-pyridyl)-3H-2,1-benzoxaborole-6-carboxamide] gave an inhibition of growth at 20 ppm not below 80%.

In the case of `COc1c(C(=O)Nc2nnc(C)[nH]2)ccc2c1B(O)OC2` [Compound 43, 1-hydroxy-7-methoxy-N-(5-methyl-4H-1,2,4-triazol-3-yl)-3H-2,1-benzoxaborole-6-carboxamide], the inhibition of growth at 20 ppm is not below 80%.

`CCC(NC(=O)c1ccc2c(c1OC)B(O)OC2)C(=O)OC` (stereo not shown) [Compound 44, methyl 2-[(1-hydroxy-7-methoxy-3H-2,1-benzoxaborole-6-carbonyl)amino]butanoate] displayed an inhibition of growth at 20 ppm not below 80%.

`COc1c(C(=O)NC(=S)N(C)Cc2cccnc2)ccc2c1B(O)OC2` [Compound 47, 1-hydroxy-7-methoxy-N-[methyl(3-pyridylmethyl)carbamothioyl]-3H-2,1-benzoxaborole-6-carboxamide] returned an inhibition of growth at 20 ppm not below 80%.

The molecule `CCN(Cc1cccnc1)C(=O)c1ccc2c(c1OC)B(O)OC2` [Compound 48, N-ethyl-1-hydroxy-7-methoxy-N-(3-pyridylmethyl)-3H-2,1-benzoxaborole-6-carboxamide] yielded an inhibition of growth at 20 ppm not below 80%.

Molecule `COc1c(C(=O)N(C)c2ncn[nH]2)ccc2c1B(O)OC2` [Compound 50, 1-hydroxy-7-methoxy-N-methyl-N-(1H-1,2,4-triazol-5-yl)-3H-2,1-benzoxaborole-6-carboxamide] registered an inhibition of growth at 20 ppm not below 80%.

`COc1n[nH]c(NC(=O)c2ccc3c(c2OC)B(O)OC3)n1` [Compound 51, 1-hydroxy-7-methoxy-N-(3-methoxy-1H-1,2,4-triazol-5-yl)-3H-2,1-benzoxaborole-6-carboxamide]: the inhibition of growth at 20 ppm is not below 80%.

The molecule `COc1c(C(=O)NCCOc2ccccc2)ccc2c1B(O)OC2` [Compound 56, 1-hydroxy-7-methoxy-N-(2-phenoxyethyl)-3H-2,1-benzoxaborole-6-carboxamide] had an inhibition of growth at 20 ppm not below 80%.

In turn, `COc1c(C(=O)NCc2ccc(Cl)nc2)ccc2c1B(O)OC2` [Compound 59, N-[(6-chloro-3-pyridyl)methyl]-1-hydroxy-7-methoxy-3H-2,1-benzoxaborole-6-carboxamide] registered an inhibition of growth at 20 ppm not below 80%.

With `COc1c(C(=O)NC(C)(C)C)ccc2c1B(O)OC2` [Compound 60, N-tert-butyl-1-hydroxy-7-methoxy-3H-2,1-benzoxaborole-6-carboxamide], the inhibition of growth at 20 ppm is not below 80%.

`COc1c(C(=O)NCC2CC(F)(F)C2(F)F)ccc2c1B(O)OC2` (stereo not shown) [Compound 62, 1-hydroxy-7-methoxy-N-[(2,2,3,3-tetrafluorocyclobutyl)methyl]-3H-2,1-benzoxaborole-6-carboxamide] returned an inhibition of growth at 20 ppm not below 80%.

Regarding `COC(=O)c1cc(NC(=O)c2ccc3c(c2OC)B(O)OC3)cn1C` [Compound 67, methyl 4-[(1-hydroxy-7-methoxy-3H-2,1-benzoxaborole-6-carbonyl)amino]-1-methyl-pyrrole-2-carboxylate], the inhibition of growth at 20 ppm is not below 80%.

Consider `COc1c(C(=O)NCc2ncc(C(F)(F)F)cc2Cl)ccc2c1B(O)OC2` [Compound 68, N-[[3-chloro-5-(trifluoromethyl)-2-pyridyl]methyl]-1-hydroxy-7-methoxy-3H-2,1-benzoxaborole-6-carboxamide], for which the inhibition of growth at 20 ppm is not below 80%.
